In the OPERA property sets (Mansouri et al. 2018) one finds logP data, which are given here for 16 compounds.

For the compound `CCc1ccc2cc(O)c(O)cc2c1`, the logP (commonly the decadic logarithm of the partition coefficient of the neutral form, usually between octanol and water) came out at 3.25. The compound `CCCCCC(O)c1ccc(O)c(O)c1` (stereo unspecified) displayed a logP of 2.32. In the case of `O=C(C=Cc1ccc(O)c(O)c1)NCc1ccccc1` it was 2.48; in that of `CCCCCCNC(=O)c1ccc(O)c(O)c1`, 2.71. Take `CCOc1ccc2cc(O)c(O)cc2c1`: the log partition coefficient (logP) was 2.7. As for `CCCCC=Cc1ccc(O)c(O)c1`, the figure is 3.82; as for `COc1ccc(CCNC(=O)C=Cc2ccc(O)c(O)c2)cc1OC`, 2.07; as for `CCCCc1ccc(O)c(O)c1`, 2.96. For `O=C(C=Cc1ccc(O)c(O)c1)CCCCCO`, the logP was 1.67. Consider `COc1ccc(NC(=O)C=Cc2ccc(O)c(O)c2)cc1OC`, for which the logP stood at 2.3. In the case of `CCCCCCNC(=O)C=Cc1ccc(O)c(O)c1` it was 3.37; in that of `CCCC(=O)C=Cc1ccc(O)c(O)c1`, 2.61. In the case of `COc1ccc(CNC(=O)C=Cc2ccc(O)c(O)c2)cc1OC` it was 1.99; in that of `O=C(C=Cc1ccc(O)c(O)c1)NCCc1ccccc1`, 2.72; in that of `CCCCOC(=O)/C=C/c1ccc(O)c(O)c1`, 3.53. `CCCCNC(=O)c1ccc2cc(O)c(O)cc2c1`: the lipophilicity (logP) worked out at 2.72.
